Measurements published in patent US12384776B2, “Compounds and uses thereof” (Foghorn Therapeutics Inc., priority 2019, dated 2025).

These compounds were tested against BRD9 bromodomain (Homo sapiens (Human), UniProt Q9H8M2) (assay: BRD9 bromodomain TR-FRET competition binding assay). Settings: not given.
Procedure: Procedure: His-Flag-BRD9 (P133-K239; Swiss Prot Q9H8M2; SEQ ID NO:1 mgsshhhhhhenlyfq/gdykddddkgslevlfqg/[…] […]) was cloned, expressed, purified, and then treated with TEV protease. Cleaved His tag was removed by purification. The binding of a biotinylated small molecule ligand of BRD9 was assessed via the LANCE® TR-FRET platform (PerkinElmer), and the compounds were assayed for inhibitory activity against this interaction.
Results: A mixture of biotinylated-ligand and SureLight™ Allophycocyanin-Streptavidin (APC-SA, PerkinElmer AD0201) in 50 mM HEPES (pH 7.4), 50 mM NaCl, 1 mM TCEP (pH 7), 0.01% (v/v) Tween-20, 0.01% (w/v) bovine serum albumin was added to a white 384-well PerkinElmer Proxiplate Plus plate. DMSO or 3-fold serially diluted compounds were then added to the Proxiplate followed by addition of Flag-BRD9. After a 10-minute incubation at room temperature, Eu—W1024 anti-FLAG (PerkinElmer, AD0273) was added. The final reaction mixture that contained 3.75 nM biotinylated ligand, 3 nM Flag-BRD9, 7.5 nM SureLight™ Allophycocyanin-Streptavidin, and 0.2 nM Eu—W1024 anti-FLAG was incubated at room temperature for 90 minutes.
The plates were then read on a PerkinElmer Envision plate reader to determine the ratio of emission at 665 nm over 615 nm. […]

Sequence of BRD9 bromodomain (Q9H8M2 133-239): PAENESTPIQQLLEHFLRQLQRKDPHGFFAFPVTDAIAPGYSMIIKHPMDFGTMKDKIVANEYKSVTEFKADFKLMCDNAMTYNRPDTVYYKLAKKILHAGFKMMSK

Compound | IC50
COc1cc(-c2cn(C)c(=O)c3c2CNC(C(=O)O)C3)cc(OC)c1CN(C)C (centres unmarked) [Compound B2, 8-[4-[(dimethylamino)methyl]-3,5-dimethoxyphenyl]-6-methyl-5-oxo-1,2,3,4,5,6-hexahydro-2,6-naphthyridine-3-carboxylic acid] | > 1000 nM
CNC(=O)C1Cc2c(c(-c3cc(OC)c(CN(C)C)c(OC)c3)cn(C)c2=O)CN1 (centres unmarked) [Compound B3, 8-[4-[(dimethylamino)methyl]-3,5-dimethoxyphenyl]-N,6-dimethyl-5-oxo-1,2,3,4,5,6-hexahydro-2,6-naphthyridine-3-carboxamide] | > 1000 nM
COc1cc(-c2cn(C)c(=O)c3c2CNC(C(N)=O)C3)cc(OC)c1CN(C)C (centres unmarked) [Compound B4, 8-[4-[(dimethylamino)methyl]-3,5-dimethoxyphenyl]-6-methyl-5-oxo-1,2,3,4,5,6-hexahydro-2,6-naphthyridine-3-carboxamide] | > 1000 nM
CCNC(=O)N1CCc2c(-c3cc(OC)c(CN(C)C)c(OC)c3)cn(C)c(=O)c2C1 [Compound B5, 5-(4-((dimethylamino)methyl)-3,5-dimethoxyphenyl)-N-ethyl-7-methyl-8-oxo-3,4,7,8-tetrahydro-2,7-naphthyridine-2 (1H)-carboxamide] | < 10 nM
COc1cc(-c2cn(C)c(=O)c3c2CCN(C(=O)N(C)C)C3)cc(OC)c1CN(C)C [Compound B6, 5-(4-((dimethylamino)methyl)-3,5-dimethoxyphenyl)-N,N,7-trimethyl-8-oxo-3,4,7,8-tetrahydro-2,7-naphthyridine-2 (1H)-carboxamide] | > 100 nM
CCCCNC(=O)N1CCc2c(-c3cc(OC)c(CN(C)C)c(OC)c3)cn(C)c(=O)c2C1 [Compound B7, N-butyl-5-(4-((dimethylamino)methyl)-3,5-dimethoxyphenyl)-7-methyl-8-oxo-3,4,7,8-tetrahydro-2,7-naphthyridine-2 (1H)-carboxamide] | < 10 nM

The compounds below were run against Nanoluciferase-BRD9 fusion protein (3×FLAG-NLuc-BRD9) in SYO-1 cells (Homo sapiens (Human), UniProt Q9H8M2) (assay: SYO1 BRD9 NanoLuc degradation assay). Settings: SYO-1 cells expressing 3×FLAG-NLuc-BRD9, 6 hours incubation, top dose 1 μM.
Sequence of Nanoluciferase-BRD9 fusion protein (3×FLAG-NLuc-BRD9) in SYO-1 cells (Q9H8M2 whole entry, the tested form may be a part): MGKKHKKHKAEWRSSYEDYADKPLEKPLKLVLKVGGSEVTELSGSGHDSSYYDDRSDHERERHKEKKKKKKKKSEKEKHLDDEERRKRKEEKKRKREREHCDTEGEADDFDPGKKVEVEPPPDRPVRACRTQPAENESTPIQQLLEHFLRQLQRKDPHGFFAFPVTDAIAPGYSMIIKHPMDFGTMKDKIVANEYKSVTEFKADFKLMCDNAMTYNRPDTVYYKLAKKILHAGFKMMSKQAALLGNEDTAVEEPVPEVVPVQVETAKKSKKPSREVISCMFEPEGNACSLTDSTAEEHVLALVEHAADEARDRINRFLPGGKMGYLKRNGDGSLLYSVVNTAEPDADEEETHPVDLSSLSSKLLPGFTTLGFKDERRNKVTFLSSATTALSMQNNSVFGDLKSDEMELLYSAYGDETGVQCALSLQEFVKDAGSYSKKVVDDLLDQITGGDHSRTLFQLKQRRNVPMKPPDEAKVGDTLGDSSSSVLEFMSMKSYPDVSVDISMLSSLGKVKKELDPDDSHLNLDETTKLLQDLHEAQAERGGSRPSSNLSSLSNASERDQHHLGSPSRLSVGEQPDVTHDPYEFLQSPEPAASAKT
Assay type: cell-based
Summary of the method: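 Stable SYO-1 line expressing 3×FLAG-NLuc-BRD9, treated with 10-point 3-fold dilutions (top 1 μM final) for 6 hours. Nanoluciferase luminescence read with Nano-Glo reagent. % inhibition relative to DMSO (high control) and 1 μM reference BRD9 degrader (low control).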

Compound | IC50
CNC(=O)N1CCc2c(-c3cc(OC)c(CN4CCN(CCC5CCN(c6c(F)c(F)c7c(c6F)C(=O)N(c6ccc(F)cc6F)C7=O)CC5)CC4)c(OC)c3)cn(C)c(=O)c2C1 [DD1] | < 10 nM

Same assay, conditions: SYO-1 cells, 6 hours, Table 6C

Compound | IC50
COc1cc(-c2cn(C)c(=O)c3c2CN(C(=O)F)CC3)cc(OC)c1CN1CC(CN2CCC3(CC2)CN(c2ccc4c(c2)C(=O)N(C2CCC(=O)NC2=O)C4)C3)C1 (centres unmarked) [Compound D349] | ≥ 10 nM
COc1cc(-c2cn(C)c(=O)c3c2CCCN3)cc(OC)c1CN1CCC2(CC1)CN(c1ccc3c(c1)C(=O)N(C1CCC(=O)NC1=O)C3=O)C2 (centres unmarked) [Compound D351] | ≥ 10 nM
COc1cc(-c2cn(C)c(=O)c3c2N(C)CC3)cc(OC)c1CN1CC(CN2CCC3(CC2)CN(c2ccc4c(c2)C(=O)N(C2CCC(=O)NC2=O)C4)C3)C1 (centres unmarked) [Compound D352] | ≥ 10 nM
COc1cc(-c2cn(C)c(=O)c3c2COC3)cc(OC)c1CN1CC(C#Cc2ccc3c(c2)C(=O)N(C2CCC(=O)NC2=O)C3)C1 (centres unmarked) [Compound D367] | < 10 nM
COc1cc(-c2cn(C)c(=O)c3c2COC3)cc(OC)c1CN1CC(C#Cc2ccc3c(c2)CN(C2CCC(=O)NC2=O)C3=O)C1 (centres unmarked) [Compound D368] | < 10 nM
COc1cc(-c2cn(C)c(=O)c3c2CCC3)cc(OC)c1CN1CC(C#Cc2ccc3c(c2)CN(C2CCC(=O)NC2=O)C3=O)C1 (centres unmarked) [Compound D369] | < 10 nM
COc1cc(-c2cn(C)c(=O)c3c2COC3)cc(OC)c1CN1CCC(C#Cc2ccc3c(c2)C(=O)N(C2CCC(=O)NC2=O)C3)CC1 (centres unmarked) [Compound D370] | < 10 nM
COc1cc(-c2cn(C)c(=O)c3c2CCC3)cc(OC)c1CN1CCC(C#Cc2ccc3c(c2)C(=O)N(C2CCC(=O)NC2=O)C3)CC1 (centres unmarked) [Compound D371] | < 10 nM
COc1cc(-c2cn(C)c(=O)c3c2COC3)cc(OC)c1CN1CCC(CN2CCC3(CC2)CN(c2ccc4c(c2)C(=O)N(C2CCC(=O)NC2=O)C4)C3)CC1 (centres unmarked) [Compound D372] | < 10 nM
COc1cc(-c2cn(C)c(=O)c3c2COC3)cc(OC)c1CN1CCN(c2ccc3c(c2)C(=O)N(C2CCC(=O)NC2=O)C3=O)CC1 (centres unmarked) [Compound D373] | < 10 nM
COc1cc(-c2cn(C)c(=O)c3c2CCC3)cc(OC)c1-c1ccc2c(c1)C(=O)N(C1CCC(=O)NC1=O)C2 (centres unmarked) [Compound D374] | < 10 nM
COc1cc(-c2cn(C)c(=O)c3c2CCC3)cc(OC)c1CN1CCC2(CC1)CN(c1cccc(N3CCC(=O)NC3=O)c1)C2 [Compound D375] | ≥ 1000 nM

Next, values leading:

IC50 | Compound
< 10 nM | CNC(=O)N1CCc2c(-c3cc(OC)c(CN4CCC(CN5CCC6(CC5)CC(Oc5ccc7c(c5)C(=O)N(C5CCC(=O)NC5=O)C7=O)C6)CC4)c(OC)c3)cn(CF)c(=O)c2C1 (centres unmarked) [Compound D347]
< 10 nM | COc1cc(-c2cn(C)c(=O)c3c2CCC3)cc(OC)c1CN1CCN(CCC2CCN(c3ccc4c(c3)C(=O)N(C3CCC(=O)NC3=O)C4)CC2)CC1 (centres unmarked) [Compound D348]
< 10 nM | COc1cc(-c2cn(C)c(=O)c3c2NCC3)cc(OC)c1CN1CC(CN2CCC3(CC2)CN(c2ccc4c(c2)C(=O)N(C2CCC(=O)NC2=O)C4)C3)C1 (centres unmarked) [Compound D350]
< 10 nM | COc1cc(-c2cn(C)c(=O)c3c2CCC3)cc(OC)c1CN1CCC(CN2CCC3(CC2)CN(c2ccc4c(c2)C(=O)N(C2CCC(=O)NC2=O)C4)C3)CC1 (centres unmarked) [Compound D353]
< 10 nM | COc1cc(-c2cn(C)c(=O)c3c2CCC(=O)N3)cc(OC)c1CN1CCC(CN2CCC3(CC2)CC(Oc2ccc4c(c2)CN(C2CCC(=O)NC2=O)C4=O)C3)CC1 (centres unmarked) [Compound D354]
< 10 nM | COc1cc(-c2cn(C)c(=O)c3c2CCC3)cc(OC)c1CN1CCC2(CC1)CN(c1ccc3c(c1)C(=O)N(C1CCC(=O)NC1=O)C3)C2 (centres unmarked) [Compound D356]
< 10 nM | COc1cc(-c2cn(C)c(=O)c3c2COC3)cc(OC)c1CN1CCC2(CC1)CN(c1ccc3c(c1)C(=O)N(C1CCC(=O)NC1=O)C3)C2 (centres unmarked) [Compound D357]
< 10 nM | COc1cc(-c2cn(C)c(=O)c3c2COC3)cc(OC)c1CN1CCC2(CC1)CN(c1ccc3c(c1)C(=O)N(C1CCC(=O)NC1=O)C3=O)C2 (centres unmarked) [Compound D358]
< 10 nM | COc1cc(-c2cn(C)c(=O)c3c2COC3)cc(OC)c1CN1CCC2(CC1)CN(c1ccc3c(c1)CN(C1CCC(=O)NC1=O)C3=O)C2 (centres unmarked) [Compound D359]
< 10 nM | COc1cc(-c2cn(C)c(=O)c3c2CCCN3)cc(OC)c1CN1CCC2(CC1)CN(c1ccc3c(c1)CN(C1CCC(=O)NC1=O)C3=O)C2 (centres unmarked) [Compound D360]
< 10 nM | COc1cc(-c2cn(C)c(=O)c3c2CCCN3)cc(OC)c1CN1CCC2(CC1)CN(c1ccc3c(c1)C(=O)N(C1CCC(=O)NC1=O)C3)C2 (centres unmarked) [Compound D361]
< 10 nM | COc1cc(-c2cn(C)c(=O)c3c2CCC3)cc(OC)c1CN1CC(Oc2ccc3c(c2)C(=O)N(C2CCC(=O)NC2=O)C3=O)C1 (centres unmarked) [Compound D362]
< 10 nM | COc1cc(-c2cn(C)c(=O)c3c2CCC3)cc(OC)c1CN1CCC2(CC1)CN(c1ccc3c(c1)C(=O)N(C1CCC(=O)NC1=O)C3=O)C2 (centres unmarked) [Compound D363]
< 10 nM | COc1cc(-c2cn(C)c(=O)c3c2CCC3)cc(OC)c1CN1CCN(c2ccc3c(c2)C(=O)N(C2CCC(=O)NC2=O)C3)CC1 (centres unmarked) [Compound D364]
< 10 nM | COc1cc(-c2cn(C)c(=O)c3c2CCC3)cc(OC)c1CN1CC(C#Cc2ccc3c(c2)C(=O)N(C2CCC(=O)NC2=O)C3)C1 (centres unmarked) [Compound D365]
< 10 nM | COc1cc(-c2cn(C)c(=O)c3c2CCC3)cc(OC)c1CN1CCN(c2ccc3c(c2)C(=O)N(C2CCC(=O)NC2=O)C3=O)CC1 (centres unmarked) [Compound D366]
